The source of these data is ChEMBL document CHEMBL2331525, “Nudibaccatumone, a trimer comprising a phenylpropanoid and two sesquiterpene moieties from Piper nudibaccatum” (J Nat Prod, 2013).

Active and inactive are the calls of the source. No cut-off for these calls is given here.

Experiment [1] has as its system K562. Briefly: Cytotoxicity against human K562 cells at 100 uM by MTT assay. In kind it is functional, cell-based.
For experiment [2], the system named is Candida albicans. Briefly: Antimicrobial activity against Candida albicans at 100 uM by microdilution method. In kind it is functional, organism-based.
Experiment [3] deals with Escherichia coli. The experiment is described as follows: Antimicrobial activity against Escherichia coli at 100 uM by microdilution method. The format is functional, organism-based.
Experiment [4] relates to A549. Briefly: Cytotoxicity against human A549 cells at 100 uM by SRB assay. The format is functional, cell-based.
The subject of experiment [5] is Staphylococcus aureus. Briefly: Antimicrobial activity against Staphylococcus aureus at 100 uM by microdilution method. In kind it is functional, organism-based.
The test system of experiment [6] is K562. Briefly: Cytotoxicity against human K562 cells by MTT assay. In kind it is functional, cell-based.
The test system of experiment [7] is A549. Briefly: Cytotoxicity against human A549 cells by SRB assay. In kind it is functional, cell-based.
The subject of experiment [8] is Escherichia coli. Briefly: Antimicrobial activity against Escherichia coli by microdilution method. The format is functional, organism-based.
The test system of experiment [9] is Staphylococcus aureus. Briefly: Antimicrobial activity against Staphylococcus aureus by microdilution method. In kind it is functional, organism-based.
The test system of experiment [10] is Candida albicans. The experiment is described as follows: Antimicrobial activity against Candida albicans by microdilution method. In kind it is functional, organism-based.

For `C/C1=C\CC[C@]2(C)[C@@H]3C(=O)C(=O)[C@@H](C=C3/C=C/C[C@@]3(C)CC[C@H]4C3=C[C@H](C(C)(C)O)CC[C@H]4C)[C@H]2[C@H]2[C@H](CC1)C2(C)C`, the outcome with K562 [1], with Candida albicans [2], in the experiment on Escherichia coli [3], with A549 [4] and in the experiment on Staphylococcus aureus [5] was inactive.
On to `COc1cccc2c1C(=O)c1c(O)c3c(c(O)c1C2=O)C[C@@](O)(C(=O)CO)C[C@@H]3O[C@H]1C[C@H](N)[C@H](O)[C@H](C)O1` [DOXORUBICIN], for which the IC50 in the experiment on K562 [6] was found to be 280 nM; in the experiment with A549 [7], 49 nM.
As to GENTAMICIN, the MIC was 1.2 µg/mL against Escherichia coli [8] and 0.05 µg/mL against Staphylococcus aureus [9].
For the molecule NYSTATIN, in the experiment with Candida albicans [10], the minimum inhibitory concentration (MIC) was 1 µg/mL.
